Measurements: patent publication US11654126B2, “Method of inhibiting the proliferation of T and/or B lymphocytes via dimethylarginine derivatives and lymphocytes proliferation inhibitor” (GUANGZHOU MEDICAL UNIVERSITY, priority 2019, dated 2023)
Entries after “also recorded” stand apart in the source; their conditions may differ.

What was measured:
[1] = tested on: mouse T cells; test: Mouse T cell proliferation assay (anti-CD3/CD28 beads, CellTrace Violet, flow cytometry); format: cell-based; conditions: 1 μM and 5 μM; for survival rate of cells / number of divided T cells: 3 days of stimulation, vs control group; for survival rate of cells: FIG. 1A; for number of divided T cells: FIG. 1B; for proliferation of mouse T cells: P<0.001
Procedure: Total splenic T cells were isolated by StemCell isolation kit: From female 6-8 weeks old C57BL mice, spleens were harvested, mechanically disrupted, and incubated with a biotinylated antibody cocktail consisting of antibodies to B220, CD11b, CD11c, CD16/32, CD19, CD25, CD105, NK1.1, and TCRγδ (StemCell). After a wash step, cells were incubated with streptavidin-coated magnetic nanoparticles (StemCell). CD3^+ cells were then isolated by applying a magnetic field and collecting the unbound cells.
The total T cells obtained in step 1 were labeled with the proliferation indicator dye CellTrace Violet according to the manufacturer's protocol, and then seeded in 96-well round bottom cell culture plates at 2×10^5 per well, next the cells were stimulated with anti-CD3 and anti-CD28 antibody coated magnetic beads (Gibco Dynabeads mouse T-activator CD3/CD28 for T-cell expansion and activation) with the beads to cells ratio of 1:4, and then expanded in RPMI-1640 medium up to 4 days, and dilution of CellTrace Violet was then evaluated by flow cytometry.
Experimental group: different concentrations of ADMA or SDMA were added (ADMA and SDMA dissolved in sterile endotoxin-free water, and the concentration of the storage solution is 0.5 mM); Control group: the same volume of sterile endotoxin-free water was added without ADMA or SDMA.

[2] = tested on: human T cells; test: Human T cell in vitro proliferation assay (anti-CD3/anti-CD28, CellTrace Violet); format: cell-based; conditions: 1 μM; for proliferation of human T cells: P<0.001; for number of divided T cells: human T cells, after 4 days of culture, FIG. 2
Text: Human T cell isolation and in vitro proliferation experiments: the use of blood from healthy adult blood donors was approved by the Ethics Committee of the Medical Faculty of Guangzhou Medical University, Guangzhou, China. Peripheral blood mononuclear cells (PBMCs) were isolated using Sepmate PBMC isolation tubes following the manufacturer's instructions (StemCell). CD3^+ human T cells were positively isolated by magnetic cell sorting (Miltenyi Biotec, Bergisch-Gladbach, Germany). Purified T cells were labeled with the proliferation dye CellTrace Violet according to the manufacturer's protocol. Then the cells (1×10^5 cells per well in flat bottom 96 well plate) were stimulated in vitro with immobilized anti-CD3 (5 μg/ml) and anti-CD28 (2 μg/ml) antibody (Biolegend, San Diego, USA), and expanded in RPMI1640 medium up to 5 days. Dilution of CellTrace Violet, indicating proliferation, was then evaluated by flow cytometry.

[3] = tested on: mouse B cells; test: Mouse B cell proliferation assay (splenocytes, IL-4 + anti-IgM, CellTrace Violet); format: cell-based; conditions: 5 μM; for B cells proliferation: P<0.01; for number of live B cells / number of divided B cells: after 4 days; for number of live B cells: FIG. 3A; for number of divided B cells: FIG. 3B
Procedure: Spleens were harvested, mechanically disrupted, and resuspend in RPMI 1640 complete medium (10% FBS).
Total splenocytes were then labeled with the proliferation dye CellTrace Violet according to the manufacturer's protocol. Then splenocytes (1×10^5 cells per well in flat bottom 96 well plate) were stimulated with recombinant human IL-4 ([…] and α-mouse IgM (10 μg/ml), and expanded in RPMI1640 medium up to 5 days. Dilution of CellTrace Violet was then evaluated by flow cytometry. (Note; splenocytes contain T cells and monocytes, which will die off during the assay period.)
Experimental group: ADMA or SDMA (5 μM) was added (ADMA and SDMA dissolved in sterile endotoxin-free water, the storage solution concentration is 0.5 mM). Control group: the same volume of sterile endotoxin-free water without ADMA or SDMA was added.

[4] = tested on: mouse T cells; test: ROS generation in T cells (CellROX Green, flow cytometry); format: cell-based
Procedure: For flow cytometry, T cells were stained with 5 μM CellROX Green Reagent (Life Technologies) for 30 min at 37° C. in the presence or absence of ADMA or SDMA (5 μM), and then washed with 1×PBS once. MitoQ (100 nM) was added with ADMA and SDMA. Cells were resuspended in 300 μl of PBS before the analysis by flow cytometry.
Experimental Groups: ADMA alone, SDMA alone, or ADMA/SDMA (ADMA/SDMA represents the mixture of ADMA and SDMA herein) was used at the final concentration of 1 μM, MitoQ was used either at 10 nM or 100 nM.

[5] = tested on: activated human T cells; test: Proliferation of activated human T cells (compound added 24 h after anti-CD3/CD28 stimulation); format: cell-based; conditions: ADMA 1 μM; for inhibitory effect compared with other substances / number of live cells / T cell proliferation: PD404182 100 nM; for inhibitory effect compared with other substances / number of live cells: rapamycin 50 nM; for number of live cells: 24 h and 48 h after addition, vs control, FIG. 5A, 5B; for T cell proliferation: activated human T cells
Procedure: Human T cells were stimulated with anti-human CD3 and CD28 for 24 hours. […] Flow cytometry was used to analyze the number of live cells and the number of divided cells. The results are shown in FIG. 5A and FIG. 5B, respectively.

[6] = tested on: T cells; test: Effect of MitoQ on T cell proliferation in vitro with ADMA/SDMA; format: cell-based, mouse; conditions: MitoQ 100 nM + ADMA/SDMA 1 μM vs ADMA/SDMA group; 3 days; FIG. 4D
Procedure: After incubating MitoQ and ADMA/SDMA together with T cells up to 3 days, flow cytometry was used to investigate the effect on the T cells proliferation in vitro.
Experimental groups: Control, ADMA/SDMA (1 μM), and ADMA/SDMA (1 μM)+MitoQ (100 nM).

[7] = tested on: mouse splenic T cells; test: DMGV-induced ROS in mouse T cells (flow cytometry); format: cell-based; conditions: 1 h, FIG. 6A
Procedure: (§1) DMGV was synthesized as described in the literature (for specific preparation procedures, refer to J. Mass Spectrom. 2012, 47, 1594; Anal. Biochem. 2011, 419, 234). Mouse and human T cells were treated with none, or DMGV (10 μM), or DMGV+MitoQ (100 nM) for 1 h and ROS was measured by flow cytometry. The results are shown in FIG. 6A and FIG. 6B, respectively.

[8] = tested on: human peripheral T cells; test: DMGV-induced ROS in human T cells (flow cytometry); format: cell-based; conditions: 1 h, FIG. 6B
Procedure: as §1

[9] = tested on: human T cells; test: DMGV human T cell proliferation (anti-CD3/anti-CD28 activation); format: cell-based; conditions: 3 days, FIG. 6D
Procedure: (§2) Mouse or human T cells were activated by anti-CD3 and anti-28 antibodies with none, DMGV (10 μM), or DMGV+MitoQ (100 nM) for 3 days and proliferation was measured by flow cytometry. The results are shown in FIG. 6C and FIG. 6D, respectively.

[10] = tested on: mouse T cells; test: DMGV mouse T cell proliferation (anti-CD3/anti-CD28 activation); format: cell-based; conditions: 3 days, FIG. 6C
Procedure: as §2

[11] = tested on: SKG mice arthritis; test: Arthritis in beta-glucan injected SKG mice; format: in vivo; conditions: SKG mice with score 8 or above; DMGV 750 μg/mouse in the peritoneum up to 50 days; N=7, P=0.0006 (2-way ANOVA); FIG. 7
Procedure: SKG mice (purchased from CLEA Japan, Inc.) develop arthritis because a mutation in the ZAP-70 gene, which causes activation of T cells. SKG mice were injected with beta-glucan (30 mg/mouse, Sigma) to accelerate development of arthritis and the arthritis score was calculated as described in the literature (for specific preparation procedures, refer to Yoshitomi, H, J. Exp Med. 2005). Mice that reached the arthritis score of 8 or above in less than 2 months were selected and treated with DMGV (750 μg/mouse) twice a week up to 50 days.

[12] = ADMA or SDMA alone vs none, 2 hours, FIG. 4A

| Molecule | survival rate of cells [1] | number of divided T cells [1] | proliferation of mouse T cells [1] | proliferation of human T cells [2] | number of divided T cells [2] | B cells proliferation [3] | number of live B cells [3] | number of divided B cells [3] | ROS [4, 12] | inhibitory effect compared with other substances [5] | number of live cells [5] | T cell proliferation [5] | other results |
| --- | --- | --- | --- | --- | --- | --- | --- | --- | --- | --- | --- | --- | --- |
| CN(C)C(N)=NCCC[C@H](N)C(=O)O [ADMA, asymmetric dimethylarginine] | reduced the survival rate of cells | resulted in the reduction of the number of divided T cells | significantly inhibit the proliferation of mouse T cells | inhibit proliferation of human T cells significantly | reduced the number of divided T cells | significantly inhibit B cells proliferation | reduced the number of live | reduced the number of live (FIG. 3A) and divided B cells | ROS was significantly induced | better than PD404182; also recorded: superior to the mTOR inhibitor rapamycin | the number of live cells declined | can inhibit T cell proliferation | number of divided cells of T cells ([5]; vs control or rapamycin group): decreased significantly |
| COC1=C(OC)C(=O)C(CCCCCCCCCC[P+](c2ccccc2)(c2ccccc2)c2ccccc2)=C(C)C1=O [MitoQ, reference compound] | – | – | – | – | – | – | – | – | – | – | – | – | ROS ([4]; MitoQ (100 nM) with ADMA/SDMA vs ADMA/SDMA alone, FIG. 4B): decreased significantly; effect on inhibition of T cells proliferation by ADMA/SDMA [6]: significantly prevent the inhibitory effect of ADMA and SDMA on T cells proliferation; effect on DMGV-induced ROS ([7]; DMGV 10 μM plus MitoQ 100 nM): inhibited by MitoQ; effect on DMGV-induced ROS ([8]; DMGV 10 μM plus MitoQ 100 nM): inhibited by MitoQ; effect on inhibition of proliferation by DMGV ([9]; DMGV 10 μM plus MitoQ 100 nM): inhibited by MitoQ |
| N=C1Sc2ccccc2C2=NCCCN12 [PD404182, reference compound] | – | – | – | – | – | – | – | – | – | superior to the mTOR inhibitor rapamycin | the number of live cells declined | can inhibit T cell proliferation | – |
| CN=C(NC)NCCC[C@H](N)C(=O)O [SDMA, symmetric dimethylarginine] | reduced the survival rate of cells | resulted in the reduction of the number of divided T cells | significantly inhibit the proliferation of mouse T cells | inhibit proliferation of human T cells significantly | reduced the number of divided T cells | significantly inhibit B cells proliferation | reduced the number of live | reduced the number of live (FIG. 3A) and divided B cells | ROS was significantly induced | – | – | – | – |
| dimethylguanidino valeric acid [DMGV] | – | – | – | – | – | – | – | – | – | – | – | – | ROS ([7]; DMGV 10 μM): induces ROS; ROS ([8]; DMGV 10 μM): induces ROS; proliferation [10]: inhibited proliferation; proliferation ([9]; DMGV 10 μM): inhibited proliferation; arthritis score [11]: significantly decreased the arthritis score in all mice |
